Results: PMC11274883, “Anticancer Effect of Pt^[sequence], Pt^II5MESS, Pt^II56MESS and Their Platinum(IV)-Dihydroxy Derivatives against Triple-Negative Breast Cancer and Cisplatin-Resistant Colorectal Cancer” (Cancers, 2024)

Assays:
Assay type in all cases: cell-based
[1] = tested on: MCF10A; assay: WST-1 cytotoxicity, 72 h; details: mean ± SEM
Method: Cells were seeded in 96-well flat-bottom culture plates at a concentration of 1000 cells per well. […] After 72 h, the medium was removed and replaced with new medium. The cell viability reagent WST-1 (10 µL, Roche Diagnostics, Indianapolis, IN, USA) was added to each well. After an hour, the absorbance was measured at 450 nm using a versatile microplate reader (Bio-strategy, Campbellfield, VIC, Australia). Three separate experiments were performed, each with n = 3 replicates. GraphPad prism 10 was used to calculate apparent IC50 values using the nonlinear regression model Y = Bottom + (Top-Bottom)/(1 + 10^(X-LogIC50)) where Top and bottom are plateaus in the y-axis (% survival). The R^2 value of the curve fits ranged from 0.8972 to 0.9794.

[2] = tested on: HT29 cells; assay: Cellular uptake of Pt by ICP-MS; details: for Intracellular Concentration: HT29, 3 µM; for Intracellular/extracellular ratio: HT29, extracellular 3 µM
Method: (§1) A final concentration of 10^6 cells/well of MDA−MB−231 and HT29 cells were seeded in 6-well plates and incubated overnight to adhere. The cells were then treated with a final concentration of 3 µM of either Pt^II or Pt^IV complexes. After 0, 0.5, 1, 3, 6, 12, 24 or 30 h, the medium was removed, and the cells were washed three times with cold PBS and allowed to dry. Then, 400 µL of 69% HNO3 (Baseline grade nitric acid with PPB level reported impurities, Seastar Chemicals, Sidney, BC, Canada) was added to each well for 90 min to ensure complete digestion. […] Iridium 193 (^193Ir) was mixed online and introduced into the ICP-MS to check uptake efficiency and matrix interference. All ICP-MS parameters are described in Table S2 and elaborated in Method S3. The results represent an average of three different experiments run in triplicate (±SEM) and expressed as nmol/10^6 cells or µM/cell. Quantification of the cellular uptake of Pt was based on external standards (Certified Standard from Sigma-Aldrich, VIC, Australia) containing Internal standard Ir.
(§2) Method S3. Cellular Uptake of Platinum(II) and (IV) complexes
(§3) A final concentration of 10^6 cells/well of MDA−MB−231 and HT29 cells were seeded in 6-well plates and incubated overnight to adhere. The cells were then treated with a final concentration of 3 µM of either PtII or PtIV complexes. After 0, 0.5, 1, 3, 6, 12, 24 or 30 h, the medium was removed, and the cells were washed three times with cold PBS and allowed to dry. Then, 400 µL of 69% HNO3 (Baseline grade nitric acid with Instrument Quality Grade Nitric acid with ppb level reported impurities, Seastar Chemicals, Sidney, Canada) was added to each well for 90 mins to ensure complete digestion. The digests were then moved to trace -metal free 15 mL centrifuge tubes […]
(§4) concentration of 3.5-4%. Iridium 193 (193Ir), selected as internal standard, has similar first ionisation potential and mass to Platinum 195 (195Pt). A concentration of 50 ppb 193Ir in 2% HNO3 solution was chosen for the Perkin Elmer NexION® Inductively Coupled Plasma Mass Spectrometer (ICP-MS) as it produced a steady state signal intensity of 600-800K counts per second. Mixing and injection of sample and internal standard solution was carried out using an ESI 7 port Valve system (Elemental Scientific, USA). A high-quality Solvent Flex 2 stop pump with 0.38 mm ID tubing was used in conjunction with the ICP-MS’s Peristaltic pump set at 20 […]
(§5) standard both, at 0.25 mL/min) being 0.5 mL/min. The ICP-MS was tuned to high sensitivity settings to facilitate detection of low Pt concentrations in samples. This was done by adjusting the nebuliser gas flow between […] to achieve maximum Indium 115 intensity whilst maintaining an acceptable average oxide and doubly charged ratio of 1.64-2.24% and 1.17-1.69% respectively. The analysis method was set to peak hopping mode with a dwell time of […] and 45 sweeps through the mass spectrum per sample read. […]
(§6) peak integration time of 4500 milliseconds and enabled the collection of numerous data points for peak integration thereby increasing accuracy. The ICP-MS was tuned daily, and its performance optimised to a set of suppliers recommended settings. Analysis was only carried out when optimal oxide and doubly charged ratios with high ionic sensitivity was achieved. All ICP-MS parameters are described in Table S2. The results represent an average of three different experiments run in triplicates (± SEM) and expressed as nmol/106 cells or µM/cell. Quantification of the cellular uptake of Pt was based on external standards (Certified Standard from Sigma-Aldrich NSW, Australia) containing Internal standard Ir. […]

[3] = tested on: MDA−MB−231 cells; assay: Cellular uptake of Pt by ICP-MS; details: for Intracellular Concentration: MDA−MB−231, 3 µM; for Intracellular/extracellular ratio: MDA−MB−231, extracellular 3 µM
Method: as §1, §2, §3, §4, §5, §6

[4] = tested on: HT29 cells; assay: DCFDA cellular ROS detection assay; details: complexes at IC50, TBHP 20 µM
Method: (§7) DCFDA/H2DCFDA-cellular ROS Assay Kit (Abcam, Cambridge, MA, USA) was used to investigate the production of ROS in treated cells, as previously described. MDA−MB−231 or HT29 cells were seeded at a total concentration of 2500 cells/well in 96-well plates and incubated overnight. DMEM was then removed, and cells washed with 1× kit buffer, and stained with 25 µM 2′,7′-dichlorofluorescein diacetate (DCFH-DA) for 45 min. […] After that, the plates were scanned using the Glo-Max®-Multimode microplate reader (Promega Corporation, Alexandra, VIC, Australia) at an excitation/emission of 485/535 nm to detect fluorescence (relative fluorescence units, or RFU) at various time points. A positive control was generated using 20 µM tert-butyl hydroperoxide (TBHP), and the same procedure was applied with DCFDA. Three independent experiments in triplicates were implemented.

[5] = tested on: MDA−MB−231 cells; assay: DCFDA cellular ROS detection assay; details: complexes at IC50, TBHP 20 µM
Method: as §7

| Structure (SMILES) | IC50 [1] [µM] | Intracellular Concentration ([2]; 0 h) [nmol/10^6 cells] | Intracellular Concentration ([2]; 0.5 h) [nmol/10^6 cells] | Intracellular Concentration ([2]; 1 h) [nmol/10^6 cells] | Intracellular Concentration ([2]; 3 h) [nmol/10^6 cells] | Intracellular Concentration ([2]; 6 h) [nmol/10^6 cells] | Intracellular Concentration ([2]; 12 h) [nmol/10^6 cells] | Intracellular Concentration ([2]; 24 h) [nmol/10^6 cells] | Intracellular Concentration ([2]; 30 h) [nmol/10^6 cells] | Intracellular/extracellular ratio ([2]; 0 h) | Intracellular/extracellular ratio ([2]; 0.5 h) | Intracellular/extracellular ratio ([2]; 1 h) | Intracellular/extracellular ratio ([2]; 3 h) | Intracellular/extracellular ratio ([2]; 6 h) | Intracellular/extracellular ratio ([2]; 12 h) | Intracellular/extracellular ratio ([2]; 24 h) | Intracellular/extracellular ratio ([2]; 30 h) | Intracellular Concentration ([3]; 0 h) [nmol/10^6 cells] | Intracellular Concentration ([3]; 0.5 h) [nmol/10^6 cells] | Intracellular Concentration ([3]; 1 h) [nmol/10^6 cells] | also measured |
| --- | --- | --- | --- | --- | --- | --- | --- | --- | --- | --- | --- | --- | --- | --- | --- | --- | --- | --- | --- | --- | --- |
| Cc1cc2cccnc2c2ncccc12.N[C@H]1CCCC[C@@H]1N.O=[N+]([O-])[O-].O=[N+]([O-])[O-].[OH][Pt+2][OH] [Pt^IV5MESS(OH)2, [Pt(5-methyl-1,10-phenanthroline)(1S,2S-diaminocyclohexane)(dihydroxy)](NO3)2] | 12.2 ± 1.48 | 0.15 | 0.17 | 0.28 | 0.33 | 0.66 | 5.05 | 7.37 | 7.85 | 25.03 | 26.29 | 44.59 | 52.25 | 104.08 | 793.61 | 1158.37 | 1234.08 | 0.16 | 0.22 | 0.17 | Intracellular Concentration ([3]; 3 h): 0.25 nmol/10^6 cells; Intracellular Concentration ([3]; 6 h): 0.29 nmol/10^6 cells; Intracellular Concentration ([3]; 12 h): 1.19 nmol/10^6 cells; Intracellular Concentration ([3]; 24 h): 1.31 nmol/10^6 cells; Intracellular Concentration ([3]; 30 h): 2.37 nmol/10^6 cells; Intracellular/extracellular ratio ([3]; 0 h): 26.14; Intracellular/extracellular ratio ([3]; 0.5 h): 35.23; Intracellular/extracellular ratio ([3]; 1 h): 27.69; Intracellular/extracellular ratio ([3]; 3 h): 40.45; Intracellular/extracellular ratio ([3]; 6 h): 46.47; Intracellular/extracellular ratio ([3]; 12 h): 186.97; Intracellular/extracellular ratio ([3]; 24 h): 205.97; Intracellular/extracellular ratio ([3]; 30 h): 371.97; ROS production ([4]; HT29, 24 h): 234.55 RFU; ROS production ([4]; HT29, 48 h): 278.33 RFU; ROS production ([4]; HT29, 72 h): 296.67 RFU; ROS production ([5]; MDA−MB−231, 24 h): 245.26 RFU; ROS production ([5]; MDA−MB−231, 48 h): 264.00 RFU; ROS production ([5]; MDA−MB−231, 72 h): 314.78 RFU |
| Cc1cc2cccnc2c2ncccc12.N[C@H]1CCCC[C@@H]1N.O=[N+]([O-])[O-].O=[N+]([O-])[O-].[Pt+2] [Pt^II5MESS, [Pt(5-methyl-1,10-phenanthroline)(1S,2S-diaminocyclohexane)](NO3)2] | 1.18 ± 1.75 | 0.28 | 0.79 | 1.26 | 2.75 | 4.65 | 19.18 | 21.18 | 21.24 | 44.37 | 125.00 | 197.63 | 431.44 | 730.89 | 3013.21 | 3327.94 | 3337.20 | 0.37 | 0.44 | 0.39 | Intracellular Concentration ([3]; 3 h): 0.98 nmol/10^6 cells; Intracellular Concentration ([3]; 6 h): 1.25 nmol/10^6 cells; Intracellular Concentration ([3]; 12 h): 4.82 nmol/10^6 cells; Intracellular Concentration ([3]; 24 h): 5.64 nmol/10^6 cells; Intracellular Concentration ([3]; 30 h): 7.63 nmol/10^6 cells; Intracellular/extracellular ratio ([3]; 0 h): 57.65; Intracellular/extracellular ratio ([3]; 0.5 h): 69.63; Intracellular/extracellular ratio ([3]; 1 h): 61.30; Intracellular/extracellular ratio ([3]; 3 h): 154.59; Intracellular/extracellular ratio ([3]; 6 h): 196.09; Intracellular/extracellular ratio ([3]; 12 h): 757.65; Intracellular/extracellular ratio ([3]; 24 h): 885.63; Intracellular/extracellular ratio ([3]; 30 h): 1199.77; ROS production ([4]; HT29, 24 h): 278.00 RFU; ROS production ([4]; HT29, 48 h): 362.89 RFU; ROS production ([4]; HT29, 72 h): 404.44 RFU; ROS production ([5]; MDA−MB−231, 24 h): 316.23 RFU; ROS production ([5]; MDA−MB−231, 48 h): 372.49 RFU; ROS production ([5]; MDA−MB−231, 72 h): 399.97 RFU |
